Results published in US20240336934A1, “CRISPR/CAS9-BASED COMPOSITIONS AND METHODS FOR TREATING RETINAL DEGENERATIONS” (The Johns Hopkins University, priority 2016, published 2024).

Key:
hESC-derived RGCs = assay: Survival of hESC-derived RGCs after colchicine challenge; format: cell-based, human; conditions: two days after colchicine (1 μM); tozasertib (1 μM), Genentech inhibitor 123 (0.1 μM)
Experimental: FIG. 69A depicts survival (±SD) of hESC-derived RGCs two days after a challenge with vehicle or colchicine (1 μM) in the presence of the DLK/LZK inhibitors tozasertib (1 μM), Genentech inhibitor 123 (0.1 μM) or a vehicle control. FIG. 69B depicts survival (±SD) of hESC-derived RGCs two days after a challenge with colchicine (1 μM) in the presence of increasing doses of sunitinib.

DLK [1] = biological target: T1, DLK (Homo sapiens, UniProt Q12852); conditions: published kinase inhibitor profiling data; cited from earlier work
T1 sequence (Q12852 1-859): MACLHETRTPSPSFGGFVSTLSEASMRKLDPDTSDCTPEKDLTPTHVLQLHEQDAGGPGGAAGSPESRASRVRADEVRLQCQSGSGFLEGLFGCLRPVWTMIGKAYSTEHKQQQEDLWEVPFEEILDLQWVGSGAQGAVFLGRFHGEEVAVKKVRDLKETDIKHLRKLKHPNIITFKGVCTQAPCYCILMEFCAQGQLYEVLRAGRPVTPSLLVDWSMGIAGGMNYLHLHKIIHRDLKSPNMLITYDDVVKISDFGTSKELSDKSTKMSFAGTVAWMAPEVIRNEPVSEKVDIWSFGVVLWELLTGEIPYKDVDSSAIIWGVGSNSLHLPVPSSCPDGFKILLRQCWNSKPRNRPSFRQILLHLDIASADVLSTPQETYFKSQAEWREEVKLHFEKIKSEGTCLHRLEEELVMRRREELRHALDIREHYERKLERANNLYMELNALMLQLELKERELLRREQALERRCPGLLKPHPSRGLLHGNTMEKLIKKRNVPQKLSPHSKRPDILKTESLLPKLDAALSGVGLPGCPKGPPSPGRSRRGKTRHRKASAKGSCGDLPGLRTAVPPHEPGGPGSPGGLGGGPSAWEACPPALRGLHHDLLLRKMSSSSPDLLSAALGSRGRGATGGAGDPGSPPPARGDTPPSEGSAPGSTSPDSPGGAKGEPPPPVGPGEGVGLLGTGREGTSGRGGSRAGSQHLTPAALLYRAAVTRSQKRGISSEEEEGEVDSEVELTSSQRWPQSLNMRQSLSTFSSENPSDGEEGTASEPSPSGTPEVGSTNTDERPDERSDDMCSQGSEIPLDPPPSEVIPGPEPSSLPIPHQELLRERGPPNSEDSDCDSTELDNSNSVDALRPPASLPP

primary RGCs [2] = assay: Primary RGC survival (CellTiter-Glo) after immunopanning / colchicine; format: cell-based, mouse; conditions: combined knockdown of both DLK and LZK
Excerpt: For this screen, a high-throughput method was developed for knocking down gene expression in primary RGCs, from male and female C57Bl/6 mice (7), with small interfering RNA oligonucleotides (siRNAs) and coupled it with a quantitative assay of RGC survival (CellTiter-Glo, Promega) (5).
In order to identify these other targets, the kinome screen was modified to include Dlk siRNA in every well and sensitize it to those library siRNAs that synergized with DLK knockdown to further increase RGC survival (FIG. 19A). The other modification was to allow 48 hours for extant protein turnover, before exacerbating the immunopanning injury with colchicine, a microtubule destabilizer that has been used to model axon injury in vitro and in vivo (15, 16).

primary RGCs [3] = conditions: compared with DLK knockdown or knockout alone; cited from earlier work
RGCs = conditions: rat optic nerve transection and glaucoma models; cited from earlier work
LZK = biological target: T2, LZK (Homo sapiens, UniProt O43283); conditions: published kinase inhibitor profiling data; cited from earlier work
T2 sequence (O43283 1-966): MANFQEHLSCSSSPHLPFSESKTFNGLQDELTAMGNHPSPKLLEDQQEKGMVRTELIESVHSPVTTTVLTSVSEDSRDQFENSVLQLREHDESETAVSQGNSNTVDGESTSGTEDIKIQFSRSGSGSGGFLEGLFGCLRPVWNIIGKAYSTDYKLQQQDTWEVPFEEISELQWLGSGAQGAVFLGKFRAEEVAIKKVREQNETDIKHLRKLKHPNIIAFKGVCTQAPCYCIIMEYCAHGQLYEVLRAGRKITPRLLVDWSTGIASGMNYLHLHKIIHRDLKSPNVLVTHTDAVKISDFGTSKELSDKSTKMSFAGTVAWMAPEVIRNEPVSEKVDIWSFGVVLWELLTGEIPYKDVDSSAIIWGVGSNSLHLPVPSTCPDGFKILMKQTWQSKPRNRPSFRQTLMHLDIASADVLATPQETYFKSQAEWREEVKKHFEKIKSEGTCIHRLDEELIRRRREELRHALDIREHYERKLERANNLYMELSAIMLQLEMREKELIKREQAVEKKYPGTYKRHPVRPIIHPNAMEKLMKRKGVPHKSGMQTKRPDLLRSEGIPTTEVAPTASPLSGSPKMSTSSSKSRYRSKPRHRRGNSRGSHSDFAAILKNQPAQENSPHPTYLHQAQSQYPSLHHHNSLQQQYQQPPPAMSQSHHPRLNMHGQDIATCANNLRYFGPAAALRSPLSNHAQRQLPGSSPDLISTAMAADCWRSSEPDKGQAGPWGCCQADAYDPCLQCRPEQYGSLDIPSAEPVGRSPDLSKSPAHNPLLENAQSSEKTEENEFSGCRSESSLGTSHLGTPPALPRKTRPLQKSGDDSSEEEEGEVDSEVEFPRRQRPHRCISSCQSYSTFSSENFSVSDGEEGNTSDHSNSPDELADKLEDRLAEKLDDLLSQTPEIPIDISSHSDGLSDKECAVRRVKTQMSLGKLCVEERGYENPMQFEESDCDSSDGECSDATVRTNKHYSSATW

Dlk [4] = assay: scAAV/lentivirus transduction of RGCs from Cas9 mouse; BglII assay for Dlk gene editing; format: cell-based; conditions: gRNA delivered by ssAAV, Cas9 present from the mouse
Excerpt: Cells were harvested from the Cas9 mouse, and transduced in vitro. […] The construct was packaged to produce a self-complementary AAV (scAAV). […] Cells were harvested from the Cas9 mouse, and transduced in vitro. […] The gRNA (mm079) was delivered by ssAAV and Cas9 was present from the mouse
Titration of scAAV virus transducing either WT RGC or RGCs derived from the Cas9 mouse. […] In this assay, we are assaying for cutting by loss of a restriction enzyme site. […] A construct was generated using the H1 promoter to express a gRNA (shown in black) and mCherry simultaneously. […] The construct was packaged to produce a self-complementary AAV (scAAV).
To test this system, an AAV construct was generated that used the H1 promoter to express an mCherry-histone 2B fusion in the Pol II direction and the Dlk #4 gRNA (5′[sequence] 3′ (SEQ ID NO: 163)), which conveniently targets a BglII site (FIGS. 19G and 1H), in the Pol III direction (Dlk gRNA:H1:H2B-mCherry). […]
For restriction analysis, genomic DNA was extracted by resuspending cells in QuickExtract solution (Epicentre, Madison, WI), incubating at 65° C. for 20 min, and then at 98° C. for 20 min. The extract solution was used directly or cleaned using DNA Clean and Concentrator (Zymo Research, Irvine, CA), and quantitated by NanoDrop (Thermo 30 Fisher Scientific).

Row | Molecule | survival of hESC-derived RGCs (hESC-derived RGCs) | inhibitor of DLK (DLK [1]) | RGC survival on addition of drug to combined knockdown of DLK and LZK (primary RGCs [2]) | RGC survival in vitro (primary RGCs [3]) | protection of RGCs (RGCs) | inhibition of LZK (LZK) | targeting as detected by a BglII assay (Dlk [4])
1 | Cc1cc(Nc2cc(N3CCN(C)CC3)nc(Sc3ccc(NC(=O)C4CC4)cc3)n2)[nH]n1 [tozasertib] | promotes the survival of human ESC-derived RGCs | identified as an inhibitor of DLK | had no effect | consistently improved RGC survival in vitro more than DLK knockdown or knockout alone | protected RGCs in both the rat optic nerve transection and glaucoma models | does inhibit LZK | –
2 | GAAGAAGGTTCGAGATCTCAAGG (chemistry not given here) [mm079] | – | – | – | – | – | – | ~100%
